Assay results reported in publication PMC10614163 (ACS nano, 2023).

Experiments:
[1] = target: M^pro (Severe acute respiratory syndrome coronavirus 2, UniProt P0DTD1); test: M^pro-mediated dye release from coacervates; assay type: biochemical, SARS-CoV-2; conditions: (R5R5, D10) coacervates, 100 μM dye
[2] = for partitioning / effect on coacervates, in words: confocal microscopy, (R5R5, D10) coacervates

SMILES | Release efficiency, RE%, by M^pro [1] | Encapsulation efficiency, EE% [2] | partitioning / effect on coacervates, in words [2]
CN(C)c1ccc2nc3ccc(N)cc3[s+]c2c1.[Cl-] [Azure A, azure A] | 95 ± 1% | 50 ± 1% | 
CNc1ccc2nc3ccc(N)cc3[s+]c2c1 [Azure C, azure C] | 98 ± 1% | 65 ± 2% | 
O=C1OC2(c3ccc(O)cc3Oc3cc(O)ccc32)c2ccccc21 [Fluoresceine, fluoresceine] | 73 ± 7% |  | 
CC1(C)C(/C=C/C=C/C=C/C=C2\N(CCCCS(=O)(=O)[O-])c3ccc4ccccc4c3C2(C)C)=[N+](CCCCS(=O)(=O)[O-])c2ccc3ccccc3c21.[Na+] [ICG dye] |  |  | rapidly cause transformation of coacervates into solid aggregates
Cc1cc2nc3ccc(N(C)C)cc3nc2cc1N.Cl [Neutral red, neutral red] | 99 ± 1% | 93 ± 1% | 
CC/N=c1\cc2oc3cc(NCC)c(C)cc3c(-c3ccccc3C(=O)OCC)c-2cc1C [Rhodamine 6G, rhodamine 6G] | 98 ± 1% | 64 ± 4% | 
CCN(CC)c1ccc2c(-c3ccccc3C(=O)O)c3ccc(=[N+](CC)CC)cc-3oc2c1 [Rhodamine B, rhodamine B] | 96 ± 2% | 56 ± 1% | 
COc1cccc2c1C(=O)c1c(O)c3c(c(O)c1C2=O)C[C@@](O)(C(=O)CO)C[C@@H]3O[C@H]1C[C@H](N)[C@H](O)[C@H](C)O1 [doxorubicin] |  |  | rapidly cause transformation of coacervates into solid aggregates
